{"source": "patent US7442681B2", "about": "“Method of inhibiting vascular permeability” (University of Virginia Patent Foundation, priority 2004, dated 2008)", "molecules": {"B1": {"name": "PAK AID: PAK autoinhibitory domain, residues 83-149, cloned into the pDsRed1-N1 vector and expressed by transient transfection (protein, UniProt Q13153 83-149, looked up, fragment)", "chain": "HTIHVGFDAVTGEFTGMPEQWARLLQTSNITKSEQKKNPQAVLDVLEFYNSKKTSNSQKYMSFTDKS", "modifications": "DsRed fusion"}}, "key": {"myosin light chain (MLC)": {"tested_on": "myosin light chain (MLC)", "experiment": "MLC phosphorylation, Western blot, BAEC", "format": "cell-based, bovine", "conditions": "25 ng/ml VEGF, 20 μg/ml peptide or 5 μM ML7", "procedure": "FIG. 6. Regulation of myosin light chain (MLC) phosphorylation by PAK. FIG. 6A: confluent BAEC on FN were treated with vehicle only (+vehicle), 20 μg/ml control peptide (+con pep), 20 μg/ml PAK-blocking peptide (+PAK pep; SEQ ID NO:1), 5 μM ML7 (+ML7) with (+) or without (−) 25 ng/ml VEGF. […] FIG. 6B: as described in A, BAEC were pretreated with 20 μg/ml control peptide (+con pep) or PAK-blocking peptide (+PAK pep) followed by 25 ng/ml of VEGF, 25 ng/ml bFGF, 10 μM histamine, 0.1 units/ml thrombin, or 10 ng/ml of TNF. Upper row, anti-phospho-MLC (pMLC); middle row, total MLC (total MLC); and lower row, pMLC plus an antigenic phospho-peptide (pMLC+AP). […]\nWestern Blots—Confluent cells were starved in 0.5% serum for 18 h, treated as described in the legends to FIGS. 1, 2, 3 and 6, washed with cold PBS, and then harvested by scraping in cold lysis buffer (25 mM Tris, pH 7.4, 1% Nonidet P-40, 0.5% sodium deoxycholate, 137 mM NaCl, 50 μM EDTA, 10 μg/ml each aprotinin and leupeptin, 1 mM phenylmethylsulfonyl fluoride). […] Protein was transferred to polyvinylidene difluoride membrane, and blots were probed with primary antibodies (described under “Fluorescence Imaging”) followed by horseradish peroxidase-conjugated secondary antibodies (Jackson ImmunoResearch, Inc.). […]"}, "murine lungs": {"tested_on": "murine lungs", "experiment": "Histology of murine lungs treated with peptide and LPS", "format": "in vivo", "conditions": "mice, peptide 1 mg ip, no LPS", "description": "FIG. 9. Histology of murine lungs treated with PAK blocking peptide and LPS. FIGS. 9A (200× magnification), 9B (400×), and 9C (200×) represent photomicrographic images. […] There is some phosphoPAK staining (visible as brown stain in the original color micrographs) present in epithelial structures, alveolar walls (composed of mixed cell types), and vessel endothelium and smooth muscle. Arrow indicates a normal small vessel with red blood cells and few circulating leukocytes. Tissues were counterstained with hematoxylin.\nFIG. 10. Histology of murine lungs treated with PAK blocking peptide and LPS. FIGS. 10A (200× magnification), 10B (400×), and 10C (200×) represent photomicrographic images. […] Vessel sections (arrow) indicate that LPS highly increases the amount of pPAK in vessel walls, and also produces inflammatory enlargement of vessels, with an increase in numbers of recruited neutrophils and monocytes admixed with red blood cells and intravasating through vessel walls, an indicator of acute inflammation. Some alveolar tissues are completely eroded and filled with exudate and dead cells (FIG. 10C). Tissues were counterstained with hematoxylin.\nFIG. 11. Histology of murine lungs treated with PAK blocking peptide and LPS. FIGS. 11A (200× magnification), 11B (400×), and 11C (200×) represent photomicrographic images. […]"}, "BAEC": {"tested_on": "BAEC", "experiment": "Paracellular pore formation assay, BAEC on filters", "format": "cell-based, bovine", "conditions": "with or without VEGF", "procedure": "FIG. 5. Effects of PAK on remodeling of cell-cell junctions and the actin cytoskeleton. FIG. 5A: confluent BAECs on coverslips were serum-starved for 18 hours and then treated with 25 ng/ml VEGF. The cells were fixed and stained for phospho-PAK and F-actin. Images show phospho-PAK (pPAK) and F-actin (F-actin) at the indicated times after the addition of VEGF. White arrows indicate pores between cells. Scale bar=50μ. FIG. 5B: phospho-PAK (pPAK) and F-actin (F-actin) are shown in cells prepared and treated as described in FIG. 5A after 60 minutes with VEGF with peptide additions. […]\nMonolayer Permeability and Paracellular Pore Formation Assays—Cells were plated onto FN-coated polycarbonate membranes (3.0-μ pore size; Transwell, Costar) at 6×10^4 cells/cm^2 and cultured for 4 days with medium changes every other day until confluence was reached. […] Medium was harvested from the lower chamber, and HRP activity was determined calorimetrically by absorbance at 490 nm to detect the […] reaction product after 15 minutes of incubation with 0.5 mM guaiacol, 50 mM Na2HPO4, and 0.6 mM H2O2. […] To quantify paracellular pore formation and correlate to permeability, the fixed cell monolayer-covered filters were stained for 2 hours with Coomassie Blue (0.25% in 1:1:2 of methanol:glacial acetic acid:double distilled (dd)H2O), destained in the same solution minus dye, rinsed in ddH2O, and air-dried. […]"}}, "note": "Where no end group is shown, it is not given here.", "data": [{"molecule": "O=S(=O)(c1cccc2c(I)cccc12)N1CCCNCC1", "note": "[ML7]", "values": [{"measurement": "MLC phosphorylation induced by VEGF", "setting": "myosin light chain (MLC)", "result": "inhibited"}]}, {"molecule": "YGRKKRRQRRRGKPPAPPMRNTSTM [PAK-blocking peptide]", "values": [{"measurement": "lung histology, peptide-only", "setting": "murine lungs", "result": "equivalent to untreated mice"}]}, {"molecule": "B1", "values": [{"measurement": "formation of pores between adjacent cells", "setting": "BAEC", "result": "inhibited pore formation"}]}]}
